In patent publication US8778939B2, “Compounds” (Glaxo Group Limited, priority 2009, dated 2014):

How the values were obtained:
[1] = target: T1, 6His-Tev-LRRK2 (1326-2527) (Homo sapiens, UniProt Q5S007); experiment: LRRK2 peptide substrate assay; type: biochemical; details: Biotin-LRRKtide peptide substrate, ATP at Km
T1 construct: A LRRK2 cDNA encoding residues 1326-2527 was received from Dundee University; made in house; host or cells: Spodoptera frugiperda (Sf9) insect cells, baculovirus
T1 sequence (Q5S007 1326-2527): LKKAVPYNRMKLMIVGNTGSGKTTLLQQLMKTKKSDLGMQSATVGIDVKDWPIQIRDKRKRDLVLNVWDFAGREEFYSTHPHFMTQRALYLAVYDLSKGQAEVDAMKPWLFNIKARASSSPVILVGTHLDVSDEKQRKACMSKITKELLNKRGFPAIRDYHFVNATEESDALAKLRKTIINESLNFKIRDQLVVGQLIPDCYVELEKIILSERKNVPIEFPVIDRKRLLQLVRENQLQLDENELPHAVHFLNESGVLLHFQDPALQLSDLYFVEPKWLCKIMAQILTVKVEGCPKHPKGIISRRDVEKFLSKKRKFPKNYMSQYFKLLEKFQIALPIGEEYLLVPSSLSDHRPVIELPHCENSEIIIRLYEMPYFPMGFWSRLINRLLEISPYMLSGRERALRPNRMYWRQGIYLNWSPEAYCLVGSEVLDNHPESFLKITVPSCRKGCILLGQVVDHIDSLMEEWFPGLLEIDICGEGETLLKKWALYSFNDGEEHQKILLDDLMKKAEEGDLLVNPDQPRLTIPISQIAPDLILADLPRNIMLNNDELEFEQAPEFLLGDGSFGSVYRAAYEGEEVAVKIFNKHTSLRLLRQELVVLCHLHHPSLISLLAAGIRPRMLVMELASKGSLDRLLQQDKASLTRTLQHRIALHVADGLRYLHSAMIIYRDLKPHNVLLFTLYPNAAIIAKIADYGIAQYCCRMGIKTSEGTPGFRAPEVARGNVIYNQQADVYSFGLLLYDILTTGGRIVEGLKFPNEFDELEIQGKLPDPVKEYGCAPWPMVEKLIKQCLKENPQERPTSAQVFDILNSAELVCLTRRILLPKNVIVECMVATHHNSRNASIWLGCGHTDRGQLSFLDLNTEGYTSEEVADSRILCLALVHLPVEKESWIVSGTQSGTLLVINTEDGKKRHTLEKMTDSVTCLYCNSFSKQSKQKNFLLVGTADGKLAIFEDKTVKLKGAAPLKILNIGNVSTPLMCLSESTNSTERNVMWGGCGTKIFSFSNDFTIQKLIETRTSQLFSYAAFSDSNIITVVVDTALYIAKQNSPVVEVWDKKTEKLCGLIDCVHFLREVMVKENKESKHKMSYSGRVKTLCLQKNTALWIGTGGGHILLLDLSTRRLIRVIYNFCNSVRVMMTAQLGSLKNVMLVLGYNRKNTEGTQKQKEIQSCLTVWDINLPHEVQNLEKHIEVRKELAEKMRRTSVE
Description: Compounds of formula (I) may be tested for in vitro kinase activity in accordance with the following assays, using the non natural, in vitro, substrates moesin and the Longer Biotin-LRRKtide. Moesin and a shorter version of the peptide were identified as substrates in Jaleel et al, (2007, Biochem J, 405: 307-317).
LRRK2 Peptide Substrate Assay
(§1) a) 100 nl of a 1:4 serial dilution of test compound with a top final assay concentration of 30 μM is added to certain wells in a low volume 384 well black plate. 100 nl of DMSO is used in certain wells as controls.
b) 3 μl enzyme solution (80 nM purified recombinant 6His-Tev-LRRK2 (1326-2527) in assay buffer: 50 mM Hepes (pH 7.2), 10 mM MgCl2, 150 mM NaCl, 5% glycerol, 0.0025% triton X-100 and 1 mM DTT) is added to certain wells. […] Plates are then incubated for a further 1-2 hours at room temperature (incubation time varies depending upon rate and linearity of reaction with differing enzyme batches). d) 6 μl detection solution (50 nM Streptavidin SureLight® APC (PerkinElmer), 4 nM Eu-W1024 labelled anti-rabbit IgG antibody (PerkinElmer), 1:500 dilution (dilution determined on a batch to batch basis) of Phospho-Ezrin (Thr567)/Radixin (Thr564)/Moesin (Thr558) Polyclonal Antibody (New England Biolabs) and 60 mM EDTA in buffer: 40 mM Hepes (pH 7.2), 150 mM NaCl, 0.03% BSA) is added to each well. Plates are then incubated for a further 2 hours at room temperature before reading on a suitable plate reader (Excitation 330 nm, emission 620 nm (Eu) and 665 nm (APC)). Data is analysed using ActivityBase software (IDBS). LRRK2 AlphaScreen Protein Substrate Assay

[2] = target: T1, 6His-Tev-LRRK2 (1326-2527); experiment: LRRK2 AlphaScreen desensitised protein substrate assay; type: biochemical
Description: as §1
b) 3 μl enzyme solution (80 nM purified recombinant 6His-Tev-LRRK2 (1326-2527) in assay buffer: 50 mM Hepes (pH 7.2), 10 mM MgCl2, 150 mM NaCl, 5% glycerol, 0.0025% triton X-100 and 1 mM DTT) is added to certain wells.
Plates are then incubated for a further 1-2 hours at room temperature (incubation time varies depending upon rate and linearity of reaction with differing enzyme batches).
d) 6 μl detection solution (1:250 dilution of AlphaLisa Protein A Acceptor beads (PerkinElmer), 1:64 dilution of AlphaLisa Gluthathione Donor beads (PerkinElmer) and 1:600 dilution (dilution determined on a batch to batch basis) of Phospho-Ezrin (Thr567)/Radixin (Thr564)/Moesin (Thr558) Polyclonal Antibody (New England Biolabs) in a buffer: 50 mM Hepes (pH 7.5), 250 mM NaCl, 60 mM EDTA, 1% PEG and 0.01% Brij 35) is added to each well. Plates are then incubated for a further 2 hours at room temperature in the dark before reading on an EnVision™ plate reader with AlphaScreen HTS turbo option module and AlphaScreen settings. Data is analysed using ActivityBase software (IDBS).
LRRK2 AlphaScreen Desensitised Protein Substrate Assay
This is conducted as described for the LRRK2 alphascreen protein substrate assay, with the following differences: • 1. The concentration of ATP in the substrate solution was 2 mM. • 2. The plates were incubated for 20 minutes at room temperature following addition of the substrate solution. Pharmacological Data

[3] = read-out: pIC50 in the LRRK2 peptide substrate assay (converted)
[4] = excess of ATP present (2 mM ATP), read-out: pIC50 in the LRRK2 alphascreen desensitised protein substrate assay (converted)
[5] = mean pIC50, read-out: LRRK2 peptide substrate assay (pIC50) (converted)
[6] = mean pIC50, GST-PS-Moesin (400-577) substrate, 2 mM ATP (excess of ATP present), read-out: LRRK2 alphascreen desensitised protein substrate assay (pIC50) (converted)

IC50 [1, 3] [nM]	IC50 [1, 5] [nM]	SMILES	IC50 [2, 4] [nM]	IC50 [2, 6] [nM]
≤ 100		CN(C)Cc1ccc(OCc2ccccc2)c(C(=O)Nc2cccnc2)c1 [Example 71, 5-[(Dimethylamino)methyl]-2-[(phenylmethyl)oxy]-N-3-pyridinylbenzamide]	≤ 20000	
≤ 100		Cn1cc(-c2ccc(OCc3ccc(F)c(F)c3)c(C(=O)Nc3cccnc3)c2)cn1 [Example 110, 2-{[(3,4-Difluorophenyl)methyl]oxy)-5-(1-methyl-1H-pyrazol-4-yl)-N-3-pyridinylbenzamide]	≤ 20000	
≤ 10		O=C(Nc1cccnc1)c1cc(OC[C@H]2CCCN2)ccc1OCc1ccccc1 [Example 44, 2-[(Phenylmethyl)oxy]-N-3-pyridinyl-5-{[(2R)-2-pyrrolidinylmethyl]oxy}benzamide]	≤ 20000	
≤ 100		Cn1cc(-c2ccc(OCc3ccccc3C#N)c(C(=O)Nc3cccnc3)c2)cn1 [Example 113, 2-{[(2-Cyanophenyl)methyl]oxy}-5-(1-methyl-1H-pyrazol-4-yl)-N-3-pyridinylbenzamide]	≤ 20000	
≤ 10		Cn1cc(-c2ccc(OCc3ccc(F)cc3F)c(C(=O)Nc3cccnc3)c2)cn1 [Example 116, 2-{[(2,4-Difluorophenyl)methyl]oxy}-5-(1-methyl-1H-pyrazol-4-yl)-N-3-pyridinylbenzamide]	≤ 20000	
≤ 100	20	O=C(Nc1cccnc1)c1cc(CN2CCOCC2)ccc1OCc1ccc(F)cc1 [Example 117, 2-{[(4-Fluorophenyl)methyl]oxy}-5-(4-morpholinylmethyl)-N-3-pyridinylbenzamide]	≤ 20000	794
≤ 100		CNCCOc1ccc(OCc2ccccc2)c(C(=O)Nc2cccnc2)c1 [Example 48, 5-{[2-(Methylamino)ethyl]oxy}-2-[(phenylmethyl)oxy]-N-3-pyridinylbenzamide]	≤ 20000	
≤ 100		Cn1nccc1-c1ccc(OCc2ccc(F)cc2)c(C(=O)Nc2cccnc2)c1 [Example 95, 2-{[(4-Fluorophenyl)methyl]oxy}-5-(1-methyl-1H-pyrazol-5-yl)-N-3-pyridinylbenzamide]	≤ 20000	
≤ 100		O=C(Nc1cn[nH]c1)c1cc(Br)ccc1OCc1ccccc1 [Example 51, 5-Bromo-2-[(phenylmethyl)oxy]-N-1H-pyrazol-4-ylbenzamide]	≤ 20000	
≤ 100		O=C(Nc1cccnc1)c1cc(Br)ccc1OCc1cccc(F)c1 [Example 57, 5-Bromo-2-{[(3-fluorophenyl)methyl]oxy}-N-3-pyridinyl benzamide]	> 25100	
≤ 100		O=C(Nc1cnoc1)c1cc(-c2ccncc2)ccc1OCc1ccccc1 [Example 63, N-4-Isoxazolyl-2-[(phenylmethyl)oxy]-5-(4-pyridinyl)benzamide]	≤ 20000	
≤ 10	7.94	O=C(Nc1cccnc1)c1cc(-c2cnn(CCN3CCOCC3)c2)ccc1OCc1ccc(F)cc1 [Example 128, 2-{[(4-Fluorophenyl)methyl]oxy}-5-{1-[2-(4-morpholinyl)ethyl]-1H-pyrazol-4-yl}-N-3-pyridinylbenzamide]	≤ 20000	126
≤ 100	39.8	O=C(Nc1cccnc1F)c1cc(C(=O)N2CCOCC2)ccc1OCc1ccc(F)cc1 [Example 123, 2-{[(4-Fluorophenyl)methyl]oxy}-N-(2-fluoro-3-pyridinyl)-5-(4-morpholinylcarbonyl)benzamide]	≤ 20000	2510
≤ 100		Cn1cc(-c2ccc(OCc3ccc(F)c(F)c3)c(C(=O)Nc3ccnnc3)c2)cn1 [Example 105, 2-{[(3,4-Difluorophenyl)methyl]oxy}-5-(1-methyl-1H-pyrazol-4-yl)-N-4-pyridazinylbenzamide]	≤ 20000	
≤ 100		O=C(Nc1cccnc1)c1cc(-c2ccncc2)ccc1OCc1ccc(F)c(F)c1 [Example 109, 2-{[(3,4-Difluorophenyl)methyl]oxy}-N-3-pyridinyl-5-(4-pyridinyl)benzamide]	≤ 20000	
≤ 100		O=C(Nc1cccnc1)c1cc(CN2CCCC2)ccc1OCc1ccccc1 [Example 70, 2-[(Phenylmethyl)oxy]-N-3-pyridinyl-5-(1-pyrrolidinylmethyl)benzamide]	≤ 20000	
≤ 10		O=C(Nc1cccnc1)c1cc(-c2cn[nH]c2)ccc1OCc1ccccc1 [Example 99, 2-[(Phenylmethyl)oxy]-5-(1H-pyrazol-4-yl)-N-3-pyridinylbenzamide]	≤ 20000	
≤ 100		COc1cccc(COc2ccc(-c3cnn(C)c3)cc2C(=O)Nc2cccnc2)c1 [Example 115, 2-({[3-(Methyloxy)phenyl]methyl}oxy)-5-(1-methyl-1H-pyrazol-4-yl)-N-3-pyridinylbenzamide]	≤ 20000	
≤ 100	100	O=C(Nc1cccnc1)c1cc(CCCN2CCOCC2)ccc1OCc1ccc(F)cc1 [Example 136, 2-{[(4-Fluorophenyl)methyl]oxy}-5-[3-(4-morpholinyl)propyl]-N-3-pyridinylbenzamide]	≤ 20000	398
≤ 10	3.16	COCCn1cc(-c2ccc(OCc3ccc(F)cc3)c(C(=O)Nc3cccnc3)c2)cn1 [Example 130, 2-{[(4-Fluorophenyl)methyl]oxy}-5-{1-[2-(methyloxy)ethyl]-1H-pyrazol-4-yl}-N-3-pyridinylbenzamide]	≤ 20000	31.6
